Data: patent publication US9221822B2, “Thiazolopyrimidine modulators as immunosuppressive agents” (Katholieke Universiteit Leuven, K.U.Leuven R&D, priority 2009, dated 2015)

Tested on: Human peripheral blood mononuclear cells (PBMCs) as Responder cells, RPMI 1788 Stimulator cells
Experiment: Mixed Lymphocyte Reaction (MLR) test
Format: cell-based
Conditions: Homo sapiens, RPMI-1788, lowest concentration giving 50% inhibition of the MLR; 6 days coculture, 3H-thymidine incorporation
Procedure: Human peripheral blood mononuclear cells (PBMCs) were isolated from buffy coats, obtained from healthy blood donors by Ficoll (Lymphoprep, Axis-Shield PoC AS, Oslo, Norway) density-gradient centrifugation. The cells at the Ficoll-plasma interface were washed three times and used as “Responder” cells. RPMI 1788 (ATCC, N^o CCL-156) cells were treated with mitomycin C (Kyowa, Nycomed, Brussel, Belgium) and used as “Stimulator” cells. Responder cells (0.12×10^6), Stimulator cells (0.045×10^6) and compounds (in different concentrations) were cocultured for 6 days in RPMI 1640 medium (BioWhittaker, Lonza, Belgium) supplemented with 10% fetal calf serum, 100 U/ml Geneticin (Gibco, LifeTechnologies, UK). Cells were cultured in triplicate in flat-bottomed 96-well microtiter tissue culture plates (TTP, Switzerland). After 5 days, cells were pulsed with 1 μCi of methyl-^3H thymidine (MP Biomedicals, USA), harvested 18 h later on glass filter paper and counted. Proliferation values were expressed as counts per minute (cpm), and converted to % inhibition with respect to a blank MLR test (identical but without added compound). […]

Row | SMILES | IC50 [nM]
1 | CCCCCN1CCN(c2nc(N)nc3sc(-c4ccc(F)cc4)nc23)CC1 [Example 37, 2-(4-fluorophenyl)-7-(4-pentylpiperazin-1-yl)thiazolo[5,4-d]pyrimidin-5-amine] | > 10000
2 | CC(C)(Oc1ccc(Cl)cc1)C(=O)N1CCN(c2nc(N)nc3sc(-c4ccc(F)cc4)nc23)CC1 [Example 237, 1-(4-(5-amino-2-(4-fluorophenyl)thiazolo[5,4-d]pyrimidin-7-yl)piperazin-1-yl)-2-(4-chlorophenoxy)-2-methylpropan-1-one] | > 10000
3 | Cc1cccc(NC(=O)N2CCN(c3nc(N)nc4sc(Cc5ccc(F)cc5)nc34)CC2)c1 [Example 44, 4-(5-amino-2-(4-fluorobenzyl)thiazolo[5,4-d]pyrimidin-7-yl)-N-m-tolylpiperazine-1-carboxamide] | 400
4 | Nc1nc(N2CCN(C(=O)COc3ccc(Cl)cc3)CC2)c2nc(C3CC3)[nH]c2n1 [Example 398, 1-(4-(2-amino-8-cyclopropyl-9H-purin-6-yl)piperazin-1-yl)-2-(4-chlorophenoxy)ethanone] | 430
5 | Nc1nc(N2CCN(C(=O)Nc3ccc(Cl)cc3)CC2)c2cc(-c3ccccc3)sc2n1 [Example 331, 4-(2-amino-6-phenylthieno[2,3-d]pyrimidin-4-yl)-N-(4-chlorophenyl)piperazine-1-carboxamide] | 6700
6 | CC(=O)c1ccc(OCC(=O)N2CCN(c3nc(N)nc4sc(CCc5ccc(F)cc5)nc34)CC2)cc1 [Example 227, 2-(4-acetylphenoxy)-1-(4-(5-amino-2-(4-fluorophenethyl)thiazolo[5,4-d]pyrimidin-7-yl)piperazin-1-yl)ethanone] | 610
7 | CCCCCc1nc2c(N3CCN(C(=O)COc4ccc(Cl)cc4)CC3)nc(N)nc2s1 [Example 297, 1-(4-(5-amino-2-pentylthiazolo[5,4-d]pyrimidin-7-yl)piperazin-1-yl)-2-(4-chlorophenoxy)ethanone] | 690
8 | Nc1nc(N2CCN(C(=O)Nc3ccc(Br)cc3)CC2)c2nc(-c3ccc(F)cc3)sc2n1 [Example 218, 4-(5-amino-2-(4-fluorophenyl)thiazolo[5,4-d]pyrimidin-7-yl)-N-(4-bromophenyl)piperazine-1-carboxamide] | 177
9 | Nc1nc(N2CCN(C(=O)COc3ccc(Cl)cc3)CC2)c2nc(SC3CCCC3)[nH]c2n1 [Example 429, 1-(4-(2-amino-8-(cyclopentylthio)-9H-purin-6-yl)piperazin-1-yl)-2-(4-chlorophenoxy)ethanone] | 510
10 | Nc1nc(N2CCN(C(=O)COc3ccc(Cl)cc3)CC2)c2nc(-c3cccc(Cl)c3)[nH]c2n1 [Example 393, 1-(4-(2-amino-8-(3-chlorophenyl)-9H-purin-6-yl)piperazin-1-yl)-2-(4-chlorophenoxy)ethanone] | 660
11 | COc1ccc(OCC(=O)N2CCN(c3nc(N)nc4sc(CCc5ccc(Br)cc5)nc34)CC2)cc1 [Example 298, 1-(4-(5-amino-2-(4-bromophenethyl)thiazolo[5,4-d]pyrimidin-7-yl)piperazin-1-yl)-2-(4-methoxyphenoxy)ethanone] | 1190
12 | Nc1nc(N2CCN(C(=O)Nc3ccc(F)cc3F)CC2)c2nc(-c3ccc(F)cc3)sc2n1 [Example 217, 4-(5-amino-2-(4-fluorophenyl)thiazolo[5,4-d]pyrimidin-7-yl)-N-(2,4-difluorophenyl)piperazine-1-carboxamide] | 345
13 | Nc1nc(N2CCCN(C(=O)COc3ccc(Cl)cc3)CC2)c2cc(-c3ccccc3)sc2n1 [Example 334, 1-(4-(2-amino-6-phenylthieno[2,3-d]pyrimidin-4-yl)-1,4-diazepan-1-yl)-2-(4-chlorophenoxy)ethanone] | 8830
14 | Nc1nc(N2CCN(C(=O)COc3ccc(Br)cc3)CC2)c2nc(-c3ccc(F)cc3)sc2n1 [Example 235, 1-(4-(5-amino-2-(4-fluorophenyl)thiazolo[5,4-d]pyrimidin-7-yl)piperazin-1-yl)-2-(4-bromophenoxy)ethanone] | 460
15 | Nc1nc(N2CCN(C(=O)c3ccc(Cl)cc3)CC2)c2nc(-c3ccc(F)cc3)[nH]c2n1 [Example 404, (4-(2-amino-8-(4-fluorophenyl)-9H-purin-6-yl)piperazin-1-yl)(4-chlorophenyl)methanone] | > 10000
16 | Nc1nc(N2CCN(CC(=O)Nc3ccccn3)CC2)c2nc(-c3ccc(F)cc3)[nH]c2n1 [Example 416, 2-(4-(2-amino-8-(4-fluorophenyl)-9H-purin-6-yl)piperazin-1-yl)-N-(pyridin-2-yl)acetamide] | 5760
17 | Cc1cccc(NC(=O)N2CCN(c3nc(N)nc4oc(CCc5ccc(F)cc5)nc34)CC2)c1 [Example 196, 5-amino-2-[2-(4-fluorophenyl)ethyl]-7-(4-m-tolylcarbamoylpiperazin-1-yl)-oxazolo[5,4-d]pyrimidine] | 3970

Row | SMILES | IC50 [nM]
18 | COc1ccc(OCC(=O)N2CCN(c3nc(N)nc4sc(-c5ccccc5)nc34)CC2)cc1 [Example 208, 1-(4-(5-amino-2-phenylthiazolo[5,4-d]pyrimidin-7-yl)piperazin-1-yl)-2-(4-methoxyphenoxy)ethanone] | 42
19 | Nc1nc(N2CCN(C(=O)COc3ccc(F)cc3)CC2)c2nc(-c3ccco3)sc2n1 [Example 209, 1-(4-(5-amino-2-(furan-2-yl)thiazolo[5,4-d]pyrimidin-7-yl)piperazin-1-yl)-2-(4-fluorophenoxy)ethanone] | 55
20 | COc1ccc(OCC(=O)N2CCN(c3nc(N)nc4sc(Cc5ccc(F)cc5)nc34)CC2)cc1 [Example 230, 1-(4-(5-amino-2-(4-fluorobenzyl)thiazolo[5,4-d]pyrimidin-7-yl)piperazin-1-yl)-2-(4-methoxyphenoxy)ethanone] | 270
21 | Nc1nc(N2CCN(C(=O)OCc3ccccc3)CC2)c2nc(-c3ccc(F)cc3)sc2n1 [Example 40, benzyl-4-(5-amino-2-(4-fluorophenyl)thiazolo[5,4-d]pyrimidin-7-yl)piperazine-1-carboxylate] | 4900
22 | Nc1nc(N2CCN(C(=O)COc3ccc(Cl)cc3)CC2)c2nc(Cc3ccc(F)cc3)sc2n1 [Example 46, 1-(4-(5-amino-2-(4-fluorobenzyl)thiazolo[5,4-d]pyrimidin-7-yl)piperazin-1-yl)-2-(4-chlorophenoxy)ethanone] | 700
23 | Nc1nc(N2CCN(C(=O)COc3ccc(Cl)cc3)CC2)c2nc(CCc3ccccc3)oc2n1 [Example 189, 5-amino-2-(2-phenylethyl)-7-[4-(4-chlorophenoxyacetyl)piperazin-1-yl]oxazolo[5,4-d]pyrimidine] | 5530
24 | Cc1cccc(NC(=O)N2CCN(c3nc(N)nc4sc(CCc5cccs5)nc34)CC2)c1 [Example 157, 5-amino-2-(2-thiophen-2-ylethyl)-7-(4-m-tolylcarbamoylpiperazin-1-yl)thiazolo[5,4-d]pyrimidine] | 630
25 | Nc1nc(N2CCN(C(=O)COc3ccccc3)CC2)c2nc(-c3ccc(F)cc3)sc2n1 [Example 130, 5-amino-2-(4-fluorophenyl)-7-(4-(2-phenoxyacetyl)-piperazin-1-yl)-thiazolo[5,4-d]pyrimidine] | 350
26 | Cc1cccc(OCC(=O)N2CCN(c3nc(N)nc4sc(-c5ccco5)nc34)CC2)c1 [Example 210, 1-(4-(5-amino-2-(furan-2-yl)thiazolo[5,4-d]pyrimidin-7-yl)piperazin-1-yl)-2-(m-tolyloxy)ethanone] | 72
27 | N#Cc1ccc(NC(=O)N2CCN(c3nc(N)nc4sc(-c5ccc(F)cc5)nc34)CC2)cc1 [Example 216, 4-(5-amino-2-(4-fluorophenyl)thiazolo[5,4-d]pyrimidin-7-yl)-N-(4-cyanophenyl)piperazine-1-carboxamide] | 19
28 | COc1ccc(OCC(=O)N2CCN(c3nc(N)nc4sc(CCc5ccc(OC)c(OC)c5)nc34)CC2)cc1 [Example 257, 1-(4-(5-amino-2-(3,4-dimethoxyphenethyl)thiazolo[5,4-d]pyrimidin-7-yl)piperazin-1-yl)-2-(4-methoxyphenoxy)ethanone] | 1140
29 | CC(=O)N1CCN(c2nc(N)nc3oc(-c4ccc(F)cc4)nc23)CC1 [Example 191, 5-amino-2-(4-fluorophenyl)-7-(4-acetylpiperazin-1-yl)-oxazolo[5,4-d]pyrimidine] | > 10000
30 | CCC(c1ccc(F)cc1)c1nc2c(N3CCN(C(=O)COc4ccc(Cl)cc4)CC3)nc(N)nc2s1 (stereo not shown) [Example 150, 5-amino-2-[1-(4-fluorophenyl)propyl]-7-(4-[2-(4-chlorophenoxy)acetyl]piperazin-1-yl)thiazolo[5,4-d]pyrimidine] | 5390
31 | Nc1nc(N2CCN(C(=O)COc3ccc(Cl)cc3)CC2)c2nc(C3CC3)oc2n1 [Example 185, 5-amino-2-cyclopropyl-7-[4-(4-chlorophenoxyacetyl)piperazin-1-yl]-oxazolo[5,4-d]pyrimidine] | 1760
32 | Nc1nc(N2CCN(CC(=O)NCCc3ccccc3)CC2)c2nc(CCc3ccc(F)cc3)sc2n1 [Example 141, 5-amino-2-[2-(4-fluorophenyl)ethyl]-7-(4-(phenethylcarbamoyl-methyl)piperazin-1-yl)-thiazolo[5,4-d]pyrimidine] | 1410
33 | COCCOc1nc(N)nc2sc(-c3ccc(F)cc3)nc12 [Example 29, 2-(4-fluorophenyl)-7-(2-methoxyethoxy)-thiazolo[5,4-d]pyrimidin-5-amine] | > 10000
34 | CCCc1nc2c(N3CCN(C(=O)COc4ccc(Cl)cc4)CC3)nc(N)nc2[nH]1 [Example 397, 1-(4-(2-amino-8-propyl-9H-purin-6-yl)piperazin-1-yl)-2-(4-chlorophenoxy)ethanone] | 940
